Reference: paper PMC7360964, “Auto‐inhibition of Mif2/CENP‐C ensures centromere‐dependent kinetochore assembly in budding yeast” (The EMBO Journal, 2020)

Experiments:
Mtw1‐GFP kinetochores = assay: Kinetochore microscopy (Mtw1-GFP, Spc42-mCherry) in Mif2-overexpressing cells; assay type: cell-based, budding yeast; conditions: large-budded cells, galactose, 100 cells per strain, 2 independent experiments
Protocol: Figure 8 Auto‐inhibition of Mif2 is crucial for chromosome segregation and cell viability • Phenotypic analysis of Mif2 mutants using a galactose‐inducible overexpression system. Strains harboring the indicated Mif2 expression constructs on pESC plasmids were plated in serial dilution on doHIS‐glucose or doHIS‐raffinose/galactose plates and incubated at 30°C. • Serial dilution assay of chromosomally integrated Mif2 variants under the control of the pGAL promoter. Strains were plated on YEP‐glucose and YEP‐raffinose/galactose plates and incubated at 25°C. • Analysis of chromosome segregation in strains from (B). Distribution of fluorescently labeled chromosome III was analyzed in large‐budded cells 16 h after switching the medium to galactose. Scale bar represents 2 μm. • Microscopic analysis of kinetochores in Mif2‐overexpressing cells visualizing Mtw1‐GFP and Spc42‐mCherry. Images of representative large‐budded cells after 16 h in galactose are shown. One kinetochore cluster is enlarged in the white box for each strain. Scale bar represents 5 μm. […] Only large‐budded cells were included in the analysis. • Quantification of (D) in which large‐budded cells were classified according to their Mtw1‐GFP signal into the four indicated groups. A total of 100 cells were quantified for every strain. Mean values of the three indicated groups were calculated and plotted in a bar chart. […]

budding yeast = conditions: ref Hornung et al, 2014; cited from earlier work
Description: Figure 1 Ame1 and Mif2 are Mtw1c receptors that promote outer kinetochore assembly Left panel: Comparison of kinetochore assembly plans. Generally, inner kinetochores are represented by the […] centromere‐associated network (CCAN) of which Ame1 and Mif2 are the only essential subunits in S. cerevisiae. Right panel: Among other functions, Ame1 and Mif2 both act as receptors for the outer kinetochore component Mtw1c using short binding motifs at their N‐termini. An Ame1ΔN is lethal, while a Mif2ΔN mutant is viable. Two different scenarios for Mtw1c‐receptor configurations are indicated.

Mif2‐FRB strains = assay: Anchor-away growth assay, Mif2 alleles; assay type: cell-based, budding yeast; conditions: rapamycin
yeast growth = assay: Galactose-inducible overexpression growth assay (serial dilution); assay type: cell-based, budding yeast; conditions: two-micron pESC plasmid, 30°C
Description: What is the consequence of expressing Mif2^Ame1‐N swap in cells? […] To assess this effect in a more systematic manner, we expressed Mif2‐wt, Mif2‐ΔN, or Mif2^Ame1‐N swap under the control of a galactose‐inducible promoter in an otherwise wild‐type background. […] To further analyze the toxic effect of Mif2^Ame1‐N swap in cells, we stably integrated the different Mif2 versions under the control of the GAL10 promoter at the URA3 locus and again analyzed growth on plates. We included an additional strain in which Mif2 swap was mutated so that it cannot bind Mtw1c (R10E mutation in the RxxG motif). […]
Figure 8 Auto‐inhibition of Mif2 is crucial for chromosome segregation and cell viability • Phenotypic analysis of Mif2 mutants using a galactose‐inducible overexpression system. […] Distribution of fluorescently labeled chromosome III was analyzed in large‐budded cells 16 h after switching the medium to galactose. […] Only large‐budded cells were included in the analysis. • Quantification of (D) in which large‐budded cells were classified according to their Mtw1‐GFP signal into the four indicated groups. A total of 100 cells were quantified for every strain. Mean values of the three indicated groups were calculated and plotted in a bar chart. […]

MN = assay: Analytical SEC of Mif2 variants with MN; assay type: binding, budding yeast; conditions: 10 μM, 1 h at 4°C
Description: (§1) If intramolecular interactions between the Mif2 N‐terminus and other parts of the molecule limit the ability to bind MN, then removing this auto‐inhibitory domain should increase the affinity for MN. […] We conclude that apart from residues in its N‐terminus, also residues in the signature motif and AT‐hook of Mif2 are responsible for the ability to adopt an auto‐inhibited conformation.
(§2) Figure 6 Mif2 auto‐inhibition depends on its Cse4 and DNA‐binding motifs • Schematic introduction of Mif2wt and Mif2‐ΔsigAT in which its Cse4 and DNA‐binding motifs have been removed. […]
(§3) The GST pulldown experiment was performed using BSA‐preblocked GSH Sepharose beads. […] Beads were washed twice in pulldown buffer, before Laemmli sample buffer was added to the beads (GST pulldown) or proteins were eluted in pulldown buffer supplemented with 1 mg/ml Flag peptide before addition of Laemmli sample buffer (Flag pulldown) and samples were analyzed on a Coomassie Brilliant Blue‐stained SDS–PAGE gel or Western blotting. […] Elution of proteins was monitored at 280 nm. 100 μl fractions were collected and analyzed by SDS–PAGE and Coomassie Brilliant Blue staining or Western blotting. […] After several washes with lysis buffer, proteins were eluted with 0.2 mg/ml 3xFlag peptide in lysis buffer, and fractions were analyzed by Western blotting. […]

Mtw1‐Nnf1 complex (MN) = assay: Flag pulldown of MN by Mif2 variants; assay type: binding, budding yeast; conditions: bait 1 μM, MN 3 μM; Coomassie or Western blot against His-tag on Nnf1
Description: as §1, §2, §3

Mif2‐ΔN: Mif2 lacking the N-terminus (Mif2-D1-35)
kinetochore signal localization (Mtw1‐GFP kinetochores): closely associated with spindle pole bodies
viability / phenotype (budding yeast): viable
viability (Mif2‐FRB strains; ctf3 or chl4 deletion backgrounds): lethality
rescue of Mif2-FRB lethality (Mif2‐FRB strains; ctf19Δ background): not Mif2‐ΔN, was able to rescue the lethality
effect of overexpression on growth (yeast growth): tolerated well and did not greatly impact yeast viability

B1: Mif2‐ΔsigAT: Mif2 variant that lacks signature motif and AT-hook (protein)
chain: MDYMKLGLKSRKTGIDVKQDIPKDEYSMENIDDFFKDDETSLISMRRKSRRKSSLFLPSTLNGDTKNVLPPFLQSYKSQDDEVVQSPSGKGDGSRRSSLLSHQSNFLSPANDFEPIEEEPEQEENDIRGNDFATPITQKLSKPTYKRKYSTRYSLDTSESPSVRLTPDRITNKNVYSDVPDLVADEDDDDRVNTSLNTSDNALLEDELEDDGFIPESEEDGDYIESDSSLDSGSDSASDSDGDNTYQEVEEEAEVNTNDNEDDYIRRQASDVVRTDSIIDRNGAKENLIPEDPNEDIIERIESGGIENGEWLKHGILEANVKISDTKEETKDEIIAFAPNLSQTEQVKDTKDENFALEIMFDKHKEYFASGILKLPAISGQKKLSNSFRTYITFHVIQGIVEVTVCKNKFLSVKGSTFQIPAFNEYAIANRGNDEAKMFFVQVTVSEDANDDNDKELDSTFDTFG
modifications: left off: Flag, C-terminal, kept
notes: Mif2 variant that lacks signature motif and AT-hook
binding to MN by SEC (MN): increased binding to MN as compared to Mif2‐wt
co-purification of MN (Mtw1‐Nnf1 complex (MN)): able to co‐purify a significantly increased amount of MN
effect of overexpression on growth (yeast growth): impairs growth
